{"source": "patent US4321260A", "about": "“Method of using gonadorelin for the treatment of benign prostatic hyperplasia” (Ayerst, McKenna & Harrison Inc., priority 1980, dated 1982)", "key": {"[1]": {"system": "testes", "conditions": "in vivo; cited from earlier work"}, "[2]": {"system": "ventral prostate", "test": "3-week daily s.c. treatment of male rats, weight of the ventral prostate", "type": "in vivo, Sprague-Dawley rats", "conditions": "for weight of the ventral prostate (wet weight): male rats", "experimental": "(§1) Adult male Sprague-Dawley rats weighing 275-325 g upon arrival were obtained from Canadian Breeding Laboratories, St. Constant, Quebec, Canada. All animals were housed 2 per cage in an air-conditioned (21±1° C.; 45-50% humidity) and light (12 hours light, 12 hours darkness)-controlled room and given food and water ad libitum. […] Rats were killed by decapitation 24 hours after the last injection. The testes, seminal vesicles and ventral prostate were removed, chilled, weighed and kept frozen at -20° C. until use."}, "[3]": {"system": "seminal vesicles", "test": "3-week daily s.c. treatment of male rats, weight of the seminal vesicles", "type": "in vivo, Sprague-Dawley rats", "conditions": "for weight of the seminal vesicles (wet weight): male rats", "experimental": "as §1"}, "[4]": {"conditions": "25μg s.c. daily, 1 week of treatment"}, "[5]": {"conditions": "25μg s.c. daily, 2 weeks of treatment"}, "[6]": {"conditions": "25μg s.c. daily, 3 weeks of treatment"}, "[7]": {"conditions": "250μg s.c. daily, 1 week of treatment"}, "[8]": {"conditions": "250μg s.c. daily, 2 weeks of treatment"}, "[9]": {"conditions": "250μg s.c. daily, 3 weeks of treatment"}, "[10]": {"conditions": "2500μg s.c. daily, 1 week of treatment"}, "[11]": {"conditions": "2500μg s.c. daily, 2 weeks of treatment"}, "[12]": {"conditions": "2500μg s.c. daily, 3 weeks of treatment"}, "[13]": {"conditions": "daily subcutaneous administration to male rats up to three weeks, listed as gonadorelin"}}, "note": "Entries after “also recorded” stand apart in the source; their conditions may differ.", "data": [{"compound": "[D-Leu^6,des-Gly-NH2^10 ]-LH-RH ethylamide", "values": [{"measurement": "selective effect (decrease of seminal vesicle and ventral prostate weight while not affecting testicular weight)", "setting": "[1]", "result": "do not show such a selectivity"}]}, {"compound": "CC(C)C[C@H](NC(=O)CNC(=O)[C@H](Cc1ccc(O)cc1)NC(=O)[C@H](CO)NC(=O)[C@H](Cc1c[nH]c2ccccc12)NC(=O)[C@H](Cc1cnc[nH]1)NC(=O)[C@@H]1CCC(=O)N1)C(=O)N[C@@H](CCCNC(=N)N)C(=O)N1CCC[C@H]1C(=O)NCC(N)=O", "note": "[LH-RH, Pyr-His-Trp-Ser-Tyr-Gly-Leu-Arg-Pro-Gly-NH2]", "values": [{"measurement": "weight of the ventral prostate (wet weight)", "setting": "[2]; [4]", "result": "359 ± 23", "unit": "mg"}, {"measurement": "weight of the ventral prostate (wet weight)", "setting": "[2]; [5]", "result": "415 ± 31", "unit": "mg"}, {"measurement": "weight of the ventral prostate (wet weight)", "setting": "[2]; [6]", "result": "378 ± 13", "unit": "mg"}, {"measurement": "weight of the ventral prostate (wet weight)", "setting": "[2]; [7]", "result": "360 ± 26", "unit": "mg"}, {"measurement": "weight of the ventral prostate (wet weight)", "setting": "[2]; [8]", "result": "380 ± 38", "unit": "mg"}, {"measurement": "weight of the ventral prostate (wet weight)", "setting": "[2]; [9]", "result": "370 ± 25", "unit": "mg"}, {"measurement": "weight of the ventral prostate (wet weight)", "setting": "[2]; [10]", "result": "325 ± 12", "unit": "mg"}, {"measurement": "weight of the ventral prostate (wet weight)", "setting": "[2]; [11]", "result": "355 ± 31", "unit": "mg"}, {"measurement": "weight of the ventral prostate (wet weight)", "setting": "[2]; [12]", "result": "373 ± 18", "unit": "mg"}, {"measurement": "effect on ventral prostate weight (in words)", "setting": "[2]; [13]", "result": "significant decrease; also recorded: significantly decreases"}, {"measurement": "weight of the seminal vesicles (wet weight)", "setting": "[3]; [4]", "result": "281 ± 14", "unit": "mg"}, {"measurement": "weight of the seminal vesicles (wet weight)", "setting": "[3]; [5]", "result": "247 ± 9", "unit": "mg"}, {"measurement": "weight of the seminal vesicles (wet weight)", "setting": "[3]; [6]", "result": "260 ± 13", "unit": "mg"}, {"measurement": "weight of the seminal vesicles (wet weight)", "setting": "[3]; [7]", "result": "298 ± 10", "unit": "mg"}, {"measurement": "weight of the seminal vesicles (wet weight)", "setting": "[3]; [8]", "result": "249 ± 18", "unit": "mg"}, {"measurement": "weight of the seminal vesicles (wet weight)", "setting": "[3]; [9]", "result": "210 ± 8", "unit": "mg"}, {"measurement": "weight of the seminal vesicles (wet weight)", "setting": "[3]; [10]", "result": "265 ± 10", "unit": "mg"}, {"measurement": "weight of the seminal vesicles (wet weight)", "setting": "[3]; [11]", "result": "236 ± 13", "unit": "mg"}, {"measurement": "weight of the seminal vesicles (wet weight)", "setting": "[3]; [12]", "result": "225 ± 9", "unit": "mg"}, {"measurement": "effect on the weight of seminal vesicles (in words)", "setting": "[3]; [13]", "result": "significant decrease; also recorded: significantly decreases"}]}, {"compound": "[D-Ala^6, des-Gly-NH2^10 ]-LH-RH ethylamide", "values": [{"measurement": "selective effect (decrease of seminal vesicle and ventral prostate weight while not affecting testicular weight)", "setting": "[1]", "result": "do not show such a selectivity"}]}]}
